From PubChem BioAssay (NCI)
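Following 48 hours of exposure in 96-well plates, responses at five concentrations were used to interpolate endpoints linearly. TGI: total growth inhibition.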

Columns and labels:
Assay in all cases: NCI tumour cell line growth inhibition, 48 h
SK-MEL-28 melanoma = tested on: SK-MEL-28 melanoma
KM12 colon = tested on: KM12 colon
MCF7 breast = tested on: MCF7 breast
SNB-75 CNS = tested on: SNB-75 CNS
OVCAR-5 ovarian = tested on: OVCAR-5 ovarian
HT29 colon = tested on: HT29 colon
OVCAR-8 ovarian = tested on: OVCAR-8 ovarian
BT-549 breast = tested on: BT-549 breast
A549 NSCLC = tested on: A549 NSCLC
M14 melanoma = tested on: M14 melanoma
U251 CNS = tested on: U251 CNS
SW-620 colon = tested on: SW-620 colon
HOP-62 NSCLC = tested on: HOP-62 NSCLC
IGROV1 ovarian = tested on: IGROV1 ovarian
786-0 renal = tested on: 786-0 renal
SF-268 CNS = tested on: SF-268 CNS
NCI-H460 lung = tested on: NCI-H460 lung
MDA-MB-435 = tested on: MDA-MB-435
MDA-N = tested on: MDA-N
HS 578T breast = tested on: HS 578T breast
OVCAR-3 ovarian = tested on: OVCAR-3 ovarian
RXF 393 renal = tested on: RXF 393 renal
SK-MEL-5 melanoma = tested on: SK-MEL-5 melanoma
UACC-62 melanoma = tested on: UACC-62 melanoma
UACC-257 melanoma = tested on: UACC-257 melanoma
MDA-MB-231 breast = tested on: MDA-MB-231 breast
OVCAR-4 ovarian = tested on: OVCAR-4 ovarian
NCI-H23 lung = tested on: NCI-H23 lung
TK-10 renal = tested on: TK-10 renal
T-47D breast = tested on: T-47D breast
MALME-3M melanoma = tested on: MALME-3M melanoma
K-562 leukemia = tested on: K-562 leukemia
PC-3 prostate = tested on: PC-3 prostate
SR leukemia = tested on: SR leukemia
SN12C renal = tested on: SN12C renal
ACHN renal = tested on: ACHN renal
SK-OV-3 ovarian = tested on: SK-OV-3 ovarian
A498 renal = tested on: A498 renal
HOP-92 NSCLC = tested on: HOP-92 NSCLC
EKVX NSCLC = tested on: EKVX NSCLC
UO-31 renal = tested on: UO-31 renal
HL-60(TB) leukemia = tested on: HL-60(TB) leukemia
HCC-2998 colon = tested on: HCC-2998 colon
COLO 205 colon = tested on: COLO 205 colon
SF-539 CNS = tested on: SF-539 CNS
HCT-116 colon = tested on: HCT-116 colon
NCI-H226 lung = tested on: NCI-H226 lung
NCI-H522 lung = tested on: NCI-H522 lung
LOX IMVI melanoma = tested on: LOX IMVI melanoma
MOLT-4 leukemia = tested on: MOLT-4 leukemia
SF-295 CNS = tested on: SF-295 CNS
CCRF-CEM leukemia = tested on: CCRF-CEM leukemia
SNB-19 CNS = tested on: SNB-19 CNS
RPMI-8226 leukemia = tested on: RPMI-8226 leukemia
DU-145 prostate = tested on: DU-145 prostate
NCI/ADR-RES ovarian = tested on: NCI/ADR-RES ovarian
HCT-15 colon = tested on: HCT-15 colon
CAKI-1 renal = tested on: CAKI-1 renal

## O=C(Nn1c(-c2ccccc2)nc2ccccc2c1=O)c1ccc(CS)cc1
SK-MEL-28 melanoma
  TGI: > 100 µM
KM12 colon
  TGI: > 100 µM
MCF7 breast
  TGI: > 100 µM
SNB-75 CNS
  TGI: > 100 µM
OVCAR-5 ovarian
  TGI: > 100 µM
HT29 colon
  TGI: > 100 µM
OVCAR-8 ovarian
  TGI: > 100 µM
BT-549 breast
  TGI: 52.8 µM
A549 NSCLC
  TGI: > 100 µM
M14 melanoma
  TGI: > 100 µM
U251 CNS
  TGI: > 100 µM
SW-620 colon
  TGI: > 100 µM
HOP-62 NSCLC
  TGI: > 100 µM
IGROV1 ovarian
  TGI: 88.3 µM
786-0 renal
  TGI: 50.5 µM
SF-268 CNS
  TGI: > 100 µM
NCI-H460 lung
  TGI: > 100 µM
MDA-MB-435
  TGI: > 100 µM
MDA-N
  TGI: > 100 µM
HS 578T breast
  TGI: > 100 µM
OVCAR-3 ovarian
  TGI: > 100 µM
RXF 393 renal
  TGI: > 100 µM
SK-MEL-5 melanoma
  TGI: > 100 µM
UACC-62 melanoma
  TGI: > 100 µM
UACC-257 melanoma
  TGI: > 100 µM
MDA-MB-231 breast
  TGI: 96.1 µM
OVCAR-4 ovarian
  TGI: > 100 µM
NCI-H23 lung
  TGI: > 100 µM
TK-10 renal
  TGI: > 100 µM
T-47D breast
  TGI: > 100 µM
MALME-3M melanoma
  TGI: > 100 µM
K-562 leukemia
  TGI: > 100 µM
PC-3 prostate
  TGI: > 100 µM
SR leukemia
  TGI: > 100 µM
SN12C renal
  TGI: > 100 µM
ACHN renal
  TGI: > 100 µM
SK-OV-3 ovarian
  TGI: > 100 µM
A498 renal
  TGI: 99.8 µM
HOP-92 NSCLC
  TGI: > 100 µM
EKVX NSCLC
  TGI: > 100 µM
UO-31 renal
  TGI: > 100 µM
HL-60(TB) leukemia
  TGI: 50.1 µM
HCC-2998 colon
  TGI: > 100 µM
COLO 205 colon
  TGI: > 100 µM
SF-539 CNS
  TGI: 67.7 µM
HCT-116 colon
  TGI: > 100 µM
NCI-H226 lung
  TGI: > 100 µM
NCI-H522 lung
  TGI: > 100 µM
LOX IMVI melanoma
  TGI: 5.38 µM
MOLT-4 leukemia
  TGI: 62.4 µM
SF-295 CNS
  TGI: > 100 µM
CCRF-CEM leukemia
  TGI: 39.3 µM
SNB-19 CNS
  TGI: > 100 µM
RPMI-8226 leukemia
  TGI: > 100 µM
DU-145 prostate
  TGI: > 100 µM

## CCOC(=O)c1ccc(Nc2cnc3cc(C(F)(F)F)ccc3n2)cc1
SK-MEL-28 melanoma
  TGI: > 100 µM
KM12 colon
  TGI: > 100 µM
SNB-75 CNS
  TGI: > 100 µM
OVCAR-5 ovarian
  TGI: > 100 µM
HT29 colon
  TGI: > 100 µM
OVCAR-8 ovarian
  TGI: > 100 µM
BT-549 breast
  TGI: > 100 µM
A549 NSCLC
  TGI: > 100 µM
U251 CNS
  TGI: > 100 µM
SW-620 colon
  TGI: > 100 µM
HOP-62 NSCLC
  TGI: > 100 µM
NCI/ADR-RES ovarian
  TGI: > 100 µM
IGROV1 ovarian
  TGI: > 100 µM
786-0 renal
  TGI: > 100 µM
SF-268 CNS
  TGI: > 100 µM
NCI-H460 lung
  TGI: > 100 µM
MDA-MB-435
  TGI: > 100 µM
MDA-N
  TGI: > 100 µM
HS 578T breast
  TGI: > 100 µM
OVCAR-3 ovarian
  TGI: > 100 µM
HCT-15 colon
  TGI: > 100 µM
SK-MEL-5 melanoma
  TGI: > 100 µM
UACC-62 melanoma
  TGI: > 100 µM
UACC-257 melanoma
  TGI: > 100 µM
MDA-MB-231 breast
  TGI: > 100 µM
OVCAR-4 ovarian
  TGI: > 100 µM
NCI-H23 lung
  TGI: > 100 µM
TK-10 renal
  TGI: > 100 µM
T-47D breast
  TGI: > 100 µM
MALME-3M melanoma
  TGI: > 100 µM
K-562 leukemia
  TGI: > 100 µM
PC-3 prostate
  TGI: > 100 µM
SR leukemia
  TGI: > 100 µM
SN12C renal
  TGI: > 100 µM
ACHN renal
  TGI: > 100 µM
SK-OV-3 ovarian
  TGI: > 100 µM
A498 renal
  TGI: > 100 µM
HOP-92 NSCLC
  TGI: > 100 µM
EKVX NSCLC
  TGI: > 100 µM
UO-31 renal
  TGI: > 100 µM
HL-60(TB) leukemia
  TGI: > 100 µM
HCC-2998 colon
  TGI: > 100 µM
COLO 205 colon
  TGI: > 100 µM
SF-539 CNS
  TGI: > 100 µM
HCT-116 colon
  TGI: > 100 µM
NCI-H226 lung
  TGI: > 100 µM
NCI-H522 lung
  TGI: > 100 µM
LOX IMVI melanoma
  TGI: > 100 µM
MOLT-4 leukemia
  TGI: > 100 µM
SF-295 CNS
  TGI: > 100 µM
CCRF-CEM leukemia
  TGI: > 100 µM
RPMI-8226 leukemia
  TGI: > 100 µM
DU-145 prostate
  TGI: > 100 µM
CAKI-1 renal
  TGI: > 100 µM
